Assays:
Experiment in all cases: FLIPR calcium assay, cells with promiscuous G protein transfected with bitter receptor cDNA
Format in all cases: cell-based
Conditions in all cases: responsive if cellular response of >10% over baseline, Fluo4-AM
[1] = target: T1, T2R receptor SEQ ID NO: 6 (S6) (Homo sapiens, UniProt P59540)
T1 construct: expressed in transfected cells; host or cells: cells expressing a promiscuous G protein (e.g., G16g44)
T1 sequence (P59540 1-309): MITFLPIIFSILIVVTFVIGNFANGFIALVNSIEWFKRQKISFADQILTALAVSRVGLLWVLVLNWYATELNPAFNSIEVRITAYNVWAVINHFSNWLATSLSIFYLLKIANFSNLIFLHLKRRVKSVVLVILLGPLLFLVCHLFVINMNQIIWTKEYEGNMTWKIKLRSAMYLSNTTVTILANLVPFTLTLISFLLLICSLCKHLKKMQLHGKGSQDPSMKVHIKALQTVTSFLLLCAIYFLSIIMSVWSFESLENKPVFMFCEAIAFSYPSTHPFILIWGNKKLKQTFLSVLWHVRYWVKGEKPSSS
Method in brief: (§1)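 Fluo4-AM calcium imaging on FLIPR, agonist added during recording. Host: G16g44 cells, one receptor cDNA per transfection, 28 h culture. Activity cutoff >10% over baseline.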

[2] = target: T2, T2R receptor SEQ ID NO: 1 (S1) (Homo sapiens, UniProt Q9NYW7)
T2 construct: expressed in transfected cells; host or cells: cells expressing a promiscuous G protein (e.g., G16g44)
T2 sequence (Q9NYW7 1-299): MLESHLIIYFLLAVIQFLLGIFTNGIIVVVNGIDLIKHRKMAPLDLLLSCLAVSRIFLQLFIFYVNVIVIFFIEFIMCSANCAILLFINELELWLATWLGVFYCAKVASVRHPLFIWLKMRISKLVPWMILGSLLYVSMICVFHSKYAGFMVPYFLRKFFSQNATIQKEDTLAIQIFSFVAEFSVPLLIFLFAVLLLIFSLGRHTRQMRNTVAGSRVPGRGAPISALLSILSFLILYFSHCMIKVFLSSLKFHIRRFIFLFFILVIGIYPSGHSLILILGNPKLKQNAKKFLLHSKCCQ
Method in brief: as §1

[3] = target: T3, T2R receptor SEQ ID NO: 3 (S3) (Homo sapiens, UniProt Q9NYW0, T156M)
T3 construct: expressed in transfected cells; host or cells: cells expressing a promiscuous G protein (e.g., G16g44)
T3 sequence (Q9NYW0 1-307 T156M): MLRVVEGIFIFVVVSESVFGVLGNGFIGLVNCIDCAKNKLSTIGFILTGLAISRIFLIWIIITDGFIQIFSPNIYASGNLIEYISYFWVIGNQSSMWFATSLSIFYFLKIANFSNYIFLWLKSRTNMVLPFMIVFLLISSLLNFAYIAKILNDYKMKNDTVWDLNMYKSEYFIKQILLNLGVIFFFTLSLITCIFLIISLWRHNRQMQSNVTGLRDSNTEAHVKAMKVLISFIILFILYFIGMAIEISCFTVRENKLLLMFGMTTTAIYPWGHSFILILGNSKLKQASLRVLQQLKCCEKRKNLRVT
Method in brief: as §1

[4] = target: T4, T2R receptor SEQ ID NO: 2 (S2) (Homo sapiens, UniProt Q9NYW2)
T4 construct: expressed in transfected cells; host or cells: cells expressing a promiscuous G protein (e.g., G16g44)
T4 sequence (Q9NYW2 1-309): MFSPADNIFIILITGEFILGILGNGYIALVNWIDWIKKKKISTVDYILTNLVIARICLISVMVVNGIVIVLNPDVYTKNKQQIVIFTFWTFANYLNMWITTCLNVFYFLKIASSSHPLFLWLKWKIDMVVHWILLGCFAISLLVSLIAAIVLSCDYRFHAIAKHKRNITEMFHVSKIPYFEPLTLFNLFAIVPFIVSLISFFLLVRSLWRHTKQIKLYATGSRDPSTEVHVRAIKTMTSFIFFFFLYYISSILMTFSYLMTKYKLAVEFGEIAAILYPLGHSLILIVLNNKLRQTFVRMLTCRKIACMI
Method in brief: as §1

[5] = target: T5, T2R receptor SEQ ID NO: 4 (S4) (Homo sapiens, UniProt Q9NYV8)
T5 construct: expressed in transfected cells; host or cells: cells expressing a promiscuous G protein (e.g., G16g44)
T5 sequence (Q9NYV8 1-317): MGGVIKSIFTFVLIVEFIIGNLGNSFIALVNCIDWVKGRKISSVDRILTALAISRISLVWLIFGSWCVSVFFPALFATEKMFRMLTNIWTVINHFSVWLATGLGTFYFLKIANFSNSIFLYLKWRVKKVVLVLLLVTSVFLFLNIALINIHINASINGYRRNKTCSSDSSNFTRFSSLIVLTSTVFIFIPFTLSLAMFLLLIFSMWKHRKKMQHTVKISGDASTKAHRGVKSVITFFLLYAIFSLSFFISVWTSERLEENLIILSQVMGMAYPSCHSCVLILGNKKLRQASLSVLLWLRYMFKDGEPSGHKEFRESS
Method in brief: as §1

[6] = target: T6, T2R receptor SEQ ID NO: 5 (S5) (Homo sapiens, UniProt P59534)
T6 construct: expressed in transfected cells; host or cells: cells expressing a promiscuous G protein (e.g., G16g44)
T6 sequence (P59534 18-338): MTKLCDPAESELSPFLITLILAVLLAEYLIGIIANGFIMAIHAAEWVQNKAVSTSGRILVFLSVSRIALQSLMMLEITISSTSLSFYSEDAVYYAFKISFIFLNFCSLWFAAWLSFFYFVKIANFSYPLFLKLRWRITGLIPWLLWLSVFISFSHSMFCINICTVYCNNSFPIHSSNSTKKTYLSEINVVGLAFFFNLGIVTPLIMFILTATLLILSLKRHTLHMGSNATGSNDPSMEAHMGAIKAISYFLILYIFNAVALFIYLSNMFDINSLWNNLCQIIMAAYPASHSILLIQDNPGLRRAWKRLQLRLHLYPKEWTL
Method in brief: as §1

| Compound | S6 positive response of T2R receptor to API [1] | S1 positive response of T2R receptor to API [2] | S3 positive response of T2R receptor to API [3] | S2 positive response of T2R receptor to API [4] | S4 positive response of T2R receptor to API [5] | S5 positive response of T2R receptor to API [6] |
| --- | --- | --- | --- | --- | --- | --- |
| CCN[C@H]1C[C@H](C)S(=O)(=O)c2sc(S(N)(=O)=O)cc21 [Dorzolamide] | + (a “+” to indicate whether a particular T2R receptor showed a positive response to a particular API) | + (a “+” to indicate whether a particular T2R receptor showed a positive response to a particular API) | + (a “+” to indicate whether a particular T2R receptor showed a positive response to a particular API) | + (a “+” to indicate whether a particular T2R receptor showed a positive response to a particular API) |  |  |
| CCCCC(CC)COC(=O)CC(C(=O)OCC(CC)CCCC)S(=O)(=O)O (stereo not drawn) [Docusate] |  | + (a “+” to indicate whether a particular T2R receptor showed a positive response to a particular API) |  | + (a “+” to indicate whether a particular T2R receptor showed a positive response to a particular API) | + (a “+” to indicate whether a particular T2R receptor showed a positive response to a particular API) |  |
| C[C@H]1O[C@@H](O[C@H]2[C@@H](O)C[C@H](O[C@H]3[C@@H](O)C[C@H](O[C@H]4CC[C@@]5(C)[C@H](CC[C@@H]6[C@@H]5C[C@@H](O)[C@]5(C)[C@@H](C7=CC(=O)OC7)CC[C@]65O)C4)O[C@@H]3C)O[C@@H]2C)C[C@H](O)[C@@H]1O [Digoxin] | + (a “+” to indicate whether a particular T2R receptor showed a positive response to a particular API) |  | + (a “+” to indicate whether a particular T2R receptor showed a positive response to a particular API) | + (a “+” to indicate whether a particular T2R receptor showed a positive response to a particular API) | + (a “+” to indicate whether a particular T2R receptor showed a positive response to a particular API) |  |
| CN1CCN(CC(=O)N2c3ccccc3C(=O)Nc3cccnc32)CC1 [Pirenzepine] | + (a “+” to indicate whether a particular T2R receptor showed a positive response to a particular API) |  | + (a “+” to indicate whether a particular T2R receptor showed a positive response to a particular API) | + (a “+” to indicate whether a particular T2R receptor showed a positive response to a particular API) |  | + (a “+” to indicate whether a particular T2R receptor showed a positive response to a particular API) |
| COc1ccc2nc([S@@+]([O-])Cc3ncc(C)c(OC)c3C)[nH]c2c1 [Esomeprazole] | + (a “+” to indicate whether a particular T2R receptor showed a positive response to a particular API) |  | + (a “+” to indicate whether a particular T2R receptor showed a positive response to a particular API) | + (a “+” to indicate whether a particular T2R receptor showed a positive response to a particular API) | + (a “+” to indicate whether a particular T2R receptor showed a positive response to a particular API) |  |
| COc1ccc([C@@H]2Sc3ccccc3N(CCN(C)C)C(=O)[C@@H]2OC(C)=O)cc1 [Diltiazem] | + (a “+” to indicate whether a particular T2R receptor showed a positive response to a particular API) | + (a “+” to indicate whether a particular T2R receptor showed a positive response to a particular API) | + (a “+” to indicate whether a particular T2R receptor showed a positive response to a particular API) | + (a “+” to indicate whether a particular T2R receptor showed a positive response to a particular API) | + (a “+” to indicate whether a particular T2R receptor showed a positive response to a particular API) |  |
| CN1[C@@H]2CC[C@H]1C[C@@H](OC(=O)C(CO)c1ccccc1)C2 (stereo partly drawn) [Atropine] | + (a “+” to indicate whether a particular T2R receptor showed a positive response to a particular API) |  | + (a “+” to indicate whether a particular T2R receptor showed a positive response to a particular API) | + (a “+” to indicate whether a particular T2R receptor showed a positive response to a particular API) |  | + (a “+” to indicate whether a particular T2R receptor showed a positive response to a particular API) |
| CCN[C@H]1CN(CCCOC)S(=O)(=O)c2sc(S(N)(=O)=O)cc21 [Brinzolamide] | + (a “+” to indicate whether a particular T2R receptor showed a positive response to a particular API) | + (a “+” to indicate whether a particular T2R receptor showed a positive response to a particular API) | + (a “+” to indicate whether a particular T2R receptor showed a positive response to a particular API) | + (a “+” to indicate whether a particular T2R receptor showed a positive response to a particular API) |  |  |
| C[C@]12C=CC(=O)C=C1CC[C@@H]1[C@@H]2C(=O)C[C@@]2(C)[C@H]1CC[C@]2(O)C(=O)CO [Prednisone] | + (a “+” to indicate whether a particular T2R receptor showed a positive response to a particular API) | + (a “+” to indicate whether a particular T2R receptor showed a positive response to a particular API) | + (a “+” to indicate whether a particular T2R receptor showed a positive response to a particular API) | + (a “+” to indicate whether a particular T2R receptor showed a positive response to a particular API) | + (a “+” to indicate whether a particular T2R receptor showed a positive response to a particular API) |  |
| NCC1(CC(=O)O)CCCCC1 [Gabapentin] |  |  | + (a “+” to indicate whether a particular T2R receptor showed a positive response to a particular API) | + (a “+” to indicate whether a particular T2R receptor showed a positive response to a particular API) |  |  |

From patent US20250271426A1, “REDUCTION OF BITTER TASTE OF ACTIVE PHARMACEUTICAL INGREDIENTS AND RELATED ASSAYS AND SCREENING METHODS” (Firmenich Incorporated, priority 2022, published 2025)
